Source: PubChem BioAssay AID1963974 (Molecular Pharmacology Branch, DTP, NCI, 2024)

Tested on: 648629-189-R-J1-PDC spheroids with HUVEC/MSC, viability
Assay: Anticancer human tumor 648629-189-R-J1-PDC patient-derived bladder carcinoma cell line growth inhibition [PI3K]
Conditions: for IC50: curve of first compound; for viability, T/C: stronger effect = lower value
From the text: Combinatorial screen of targeted agents with the PI3K inhibitors inavolisib, alpelisib, duvelisib, and copanlisib in multi-cell type tumor spheroids
A high-throughput screen of multi-cell type tumor spheroids was designed to identify active combinations of targeted small molecules and PI3K pathway inhibitors. Complex spheroids include a stromal component modeled by human endothelial cells (HUVEC) and fibroblasts modeled by human mesenchymal stem cells (MSCs). The concentration ranges selected for each drug and investigational agent were based upon clinically achievable concentrations if the clinical Cmax of the agent was known.
Compounds. The drugs and investigational agents: inavolisib (NSC800729), alpelisib (NSC765974), duvelisib (NSC772469), copanlisib (NSC816437), ipatasertib (NSC767898), afuresertib (NSC778305), talazoparib (NSC767125), sapanisertib (NSC764658), selumetinib (NSC741078), tovorafenib (DAY101, NSC766906), vemurafenib (NSC761431), ravoxertinib (NSC781343), sotorasib (NSC818433), MRTX1133 (NSC 836407), abemaciclib (NSC 768073), palbociclib (NSC758247), venetoclax (NSC 766270), SY5609 (NSC837396), enzalutamide (NSC755605), and darolutamide (NSC825331), were obtained from the National Cancer Institute (NCI) Developmental Therapeutics Program Chemical Repository. The FDA-approved anticancer drug set is available from the NCI Developmental Therapeutics Program. […] The stock solutions were prepared in dimethyl sulfoxide (DMSO, Sigma-Aldrich, St. Louis, MO, cat. D2650) at 800-fold the tested concentration and stored at -70 degrees C prior to their use. All drugs and investigational agents were tested over a range starting from a high concentration at or near the clinical Cmax and decreasing in half-log increments. If the clinical Cmax for an agent had not been determined, the highest concentration tested was 10 microM.
Cell Culture. All cells were maintained in an incubator at 37 degrees C and 5% CO2 with 95% humidity. The PDC lines were cultured according to standard operating procedures established by the NCI PDMR (https://pdmr.cancer.gov/sops/default.htm). All PDCs were thawed and cultured in Matrigel-coated flasks prepared with a working solution of 1X Ham's F-12 nutrient mix, without supplementation (Invitrogen, Waltham, MA, cat. 11765054), 100 U/mL penicillin-streptomycin (Invitrogen, cat. 15140122), and 2.5% Matrigel (Corning Inc., Corning, NY, cat. 354248) for the first three passages. The 354836-022-R-J1-PDC, 475296-252-R-J1-PDC, and 997726-040-R-J2-PDC lines were cultured in 6A media, which includes advanced DMEM/F-12 (Thermo Fisher Scientific, cat. 12634028), 10 mM HEPES (Thermo Fisher Scientific, cat. 15630080), 1X GlutaMAX supplement (Thermo Fisher Scientific, cat. 35050061), 0.1 mg/mL primocin (InvivoGen, San Diego, CA, cat. ant-pm-2), 10% defined fetal bovine serum, heat inactivated (HyClone Laboratories Inc., Logan, UT, cat. SH30070.03HI), 50% L-WRN conditioned media (ATCC, cat. CRL-3276), 1.25 mM N-Acetyl-L-cysteine (Sigma-Aldrich, cat. A9165), 10 mM nicotinamide (Sigma-Aldrich, cat. N0636), 1X B-27 supplement (Thermo Fisher Scientific, cat. 17504044), 1X N-2 supplement (Thermo Fisher Scientific, cat. 17502048), and 10 microM Y-27632 dihydrochloride (Tocris Bioscience, Bristol, United Kingdom, cat. 1254). The 624824-186-R-J2-PDC line was cultured in 6C/Colon 1B media, which includes all 6A media components plus 50 ng/mL human EGF recombinant protein (Thermo Fisher Scientific, cat. PHG0311). […]
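Further: spheroids exposed to agents for seven days before reading.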
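Wherever viability, T/C is given: percent of vehicle control luminescence where 100% = DMSO treated spheroids.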

CNC(=O)c1ccc(N2C(=S)N(c3ccc(C#N)c(C(F)(F)F)c3)C(=O)C2(C)C)cc1F + CC(Nc1ccc2c(c1)OCCn1cc(N3C(=O)OCC3C(F)F)nc1-2)C(N)=O
IC50 (second compound 0.00316 µM): > 10 µM
IC50 (second compound 0.01 µM): > 10 µM
IC50 (second compound 0.0316 µM): > 10 µM
IC50 (second compound 0.1 µM): > 10 µM
IC50 (second compound 0.316 µM): > 10 µM
IC50 (second compound 1 µM): > 10 µM
viability, T/C (second compound 0.00316 µM, first compound 0.0316 µM): 107%
viability, T/C (second compound 0.00316 µM, first compound 0.1 µM): 96.5%
viability, T/C (second compound 0.00316 µM, first compound 0.316 µM): 107%
viability, T/C (second compound 0.00316 µM, first compound 1 µM): 97.6%
viability, T/C (second compound 0.00316 µM, first compound 3.16 µM): 110%
viability, T/C (second compound 0.00316 µM, first compound 10 µM): 83.4%
viability, T/C (second compound 0.01 µM, first compound 0.0316 µM): 99.6%
viability, T/C (second compound 0.01 µM, first compound 0.1 µM): 109%
viability, T/C (second compound 0.01 µM, first compound 0.316 µM): 97.2%
viability, T/C (second compound 0.01 µM, first compound 1 µM): 98.1%
viability, T/C (second compound 0.01 µM, first compound 3.16 µM): 94.8%
viability, T/C (second compound 0.01 µM, first compound 10 µM): 87.1%
viability, T/C (second compound 0.0316 µM, first compound 0.0316 µM): 103%
viability, T/C (second compound 0.0316 µM, first compound 0.1 µM): 107%
viability, T/C (second compound 0.0316 µM, first compound 0.316 µM): 102%
viability, T/C (second compound 0.0316 µM, first compound 1 µM): 101%
viability, T/C (second compound 0.0316 µM, first compound 3.16 µM): 90.5%
viability, T/C (second compound 0.0316 µM, first compound 10 µM): 78.5%
viability, T/C (second compound 0.1 µM, first compound 0.0316 µM): 93%
viability, T/C (second compound 0.1 µM, first compound 0.1 µM): 94.8%
viability, T/C (second compound 0.1 µM, first compound 0.316 µM): 102%
viability, T/C (second compound 0.1 µM, first compound 1 µM): 102%
viability, T/C (second compound 0.1 µM, first compound 3.16 µM): 88%
viability, T/C (second compound 0.1 µM, first compound 10 µM): 79.2%
viability, T/C (second compound 0.316 µM, first compound 0.0316 µM): 83.4%
viability, T/C (second compound 0.316 µM, first compound 0.1 µM): 79.1%
viability, T/C (second compound 0.316 µM, first compound 0.316 µM): 93%
viability, T/C (second compound 0.316 µM, first compound 1 µM): 75.5%
viability, T/C (second compound 0.316 µM, first compound 3.16 µM): 84.3%
viability, T/C (second compound 0.316 µM, first compound 10 µM): 68%
viability, T/C (second compound 1 µM, first compound 0.0316 µM): 69.7%
viability, T/C (second compound 1 µM, first compound 0.1 µM): 67.5%
viability, T/C (second compound 1 µM, first compound 0.316 µM): 72.1%
viability, T/C (second compound 1 µM, first compound 1 µM): 63.7%
viability, T/C (second compound 1 µM, first compound 3.16 µM): 75.4%
viability, T/C (second compound 1 µM, first compound 10 µM): 68%

Cn1cnc2c(F)c(Nc3ccc(Br)cc3Cl)c(C(=O)NOCCO)cc21 + CC(Nc1ccc2c(c1)OCCn1cc(N3C(=O)OCC3C(F)F)nc1-2)C(N)=O
IC50 (second compound 0.00316 µM): > 3 µM
IC50 (second compound 0.01 µM): > 3 µM
IC50 (second compound 0.0316 µM): > 3 µM
IC50 (second compound 0.1 µM): > 3 µM
IC50 (second compound 0.316 µM): > 3 µM
IC50 (second compound 1 µM): > 3 µM
viability, T/C (second compound 0.00316 µM, first compound 0.00949 µM): 95.5%
viability, T/C (second compound 0.00316 µM, first compound 0.03 µM): 103%
viability, T/C (second compound 0.00316 µM, first compound 0.0949 µM): 99.2%
viability, T/C (second compound 0.00316 µM, first compound 0.3 µM): 91.8%
viability, T/C (second compound 0.00316 µM, first compound 0.949 µM): 94.4%
viability, T/C (second compound 0.00316 µM, first compound 3 µM): 81.6%
viability, T/C (second compound 0.01 µM, first compound 0.00949 µM): 93.4%
viability, T/C (second compound 0.01 µM, first compound 0.03 µM): 91.2%
viability, T/C (second compound 0.01 µM, first compound 0.0949 µM): 92.9%
viability, T/C (second compound 0.01 µM, first compound 0.3 µM): 91.8%
viability, T/C (second compound 0.01 µM, first compound 0.949 µM): 103%
viability, T/C (second compound 0.01 µM, first compound 3 µM): 81.1%
viability, T/C (second compound 0.0316 µM, first compound 0.00949 µM): 98.5%
viability, T/C (second compound 0.0316 µM, first compound 0.03 µM): 96.2%
viability, T/C (second compound 0.0316 µM, first compound 0.0949 µM): 87.5%
viability, T/C (second compound 0.0316 µM, first compound 0.3 µM): 89.3%
viability, T/C (second compound 0.0316 µM, first compound 0.949 µM): 95.2%
viability, T/C (second compound 0.0316 µM, first compound 3 µM): 79.2%
viability, T/C (second compound 0.1 µM, first compound 0.00949 µM): 90.7%
viability, T/C (second compound 0.1 µM, first compound 0.03 µM): 91.7%
viability, T/C (second compound 0.1 µM, first compound 0.0949 µM): 82.6%
viability, T/C (second compound 0.1 µM, first compound 0.3 µM): 92.2%
viability, T/C (second compound 0.1 µM, first compound 0.949 µM): 93.9%
viability, T/C (second compound 0.1 µM, first compound 3 µM): 75.8%
viability, T/C (second compound 0.316 µM, first compound 0.00949 µM): 81.1%
viability, T/C (second compound 0.316 µM, first compound 0.03 µM): 79.2%
viability, T/C (second compound 0.316 µM, first compound 0.0949 µM): 70.3%
viability, T/C (second compound 0.316 µM, first compound 0.3 µM): 78.5%
viability, T/C (second compound 0.316 µM, first compound 0.949 µM): 74.3%
viability, T/C (second compound 0.316 µM, first compound 3 µM): 69.1%
viability, T/C (second compound 1 µM, first compound 0.00949 µM): 66.1%
viability, T/C (second compound 1 µM, first compound 0.03 µM): 70.4%
viability, T/C (second compound 1 µM, first compound 0.0949 µM): 66.4%
viability, T/C (second compound 1 µM, first compound 0.3 µM): 96.4%
viability, T/C (second compound 1 µM, first compound 0.949 µM): 66%
viability, T/C (second compound 1 µM, first compound 3 µM): 51%
